molecular target: SIK2 (Homo sapiens, UniProt Q9H0K1); experiment: SIK2 Enzymatic Assay High Version 2 (High ATP); format: biochemical; conditions: enzyme 6 nM, 6 mM ATP and 400 μM HDAC5tide (each 2× final concentration); 30 minutes pre-incubation, 2 hours; ADP-Glo Max luminescence; read-out: SIK2 high ATP IC50 (μM) (Test Example 2)
Summary of the method: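 At room temperature, enzyme (6 nM, 2× final) was preincubated with compound for 30 min, then 6 mM ATP and 400 μM HDAC5tide (both 2× final) were added for 2 h. ADP formed was measured by ADP-Glo Max (2 h reagent, 1 h detection) using luminescence.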

SIK2, sequence (Q9H0K1 whole entry, species assumed): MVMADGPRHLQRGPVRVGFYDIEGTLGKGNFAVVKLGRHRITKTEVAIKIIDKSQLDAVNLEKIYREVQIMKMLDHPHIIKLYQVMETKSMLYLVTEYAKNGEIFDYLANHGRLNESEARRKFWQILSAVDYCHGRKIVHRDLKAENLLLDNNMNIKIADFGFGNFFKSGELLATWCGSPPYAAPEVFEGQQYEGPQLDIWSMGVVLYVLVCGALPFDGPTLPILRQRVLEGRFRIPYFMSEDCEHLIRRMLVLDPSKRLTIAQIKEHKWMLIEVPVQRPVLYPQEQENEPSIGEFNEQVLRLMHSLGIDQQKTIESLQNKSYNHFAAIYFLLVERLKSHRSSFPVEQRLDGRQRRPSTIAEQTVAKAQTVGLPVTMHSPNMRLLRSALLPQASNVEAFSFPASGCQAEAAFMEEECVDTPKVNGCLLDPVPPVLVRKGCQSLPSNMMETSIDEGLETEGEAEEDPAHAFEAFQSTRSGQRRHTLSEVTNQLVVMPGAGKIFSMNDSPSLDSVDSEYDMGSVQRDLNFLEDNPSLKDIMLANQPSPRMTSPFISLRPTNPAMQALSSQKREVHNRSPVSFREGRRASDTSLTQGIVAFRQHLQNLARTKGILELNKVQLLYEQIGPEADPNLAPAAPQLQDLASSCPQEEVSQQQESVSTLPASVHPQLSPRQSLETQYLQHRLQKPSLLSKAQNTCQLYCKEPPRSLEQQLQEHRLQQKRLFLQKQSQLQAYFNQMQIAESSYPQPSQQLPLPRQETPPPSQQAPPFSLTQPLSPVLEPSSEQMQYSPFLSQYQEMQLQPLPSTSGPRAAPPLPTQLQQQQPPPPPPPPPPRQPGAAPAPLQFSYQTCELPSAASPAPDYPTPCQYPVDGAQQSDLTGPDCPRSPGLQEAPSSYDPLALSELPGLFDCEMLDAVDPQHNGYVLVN

| IC50 [µM] | Compound |
| --- | --- |
| 0.0953 | Cc1cc(Nc2cc3cc(-c4cc(OCC(F)(F)F)ncc4O[C@H]4CC[C@H](O)CC4)ccn3n2)nc(C)n1 [Example 664, 4-[[4-[2-[(2,6-dimethylpyrimidin-4-yl)amino]pyrazolo[1,5-a]pyridin-5-yl]-6-(2,2,2-trifluoroethoxy)-3-pyridyl]oxy]cyclohexanol] |
| 0.0244 | CC(C)(C#N)COc1cnc(OC(F)F)cc1-c1ccn2nc(NC(=O)C3CC3)cc2c1 [Example 665, N-[5-[5-(2-cyano-2-methyl-propoxy)-2-(difluoromethoxy)-4-pyridyl]pyrazolo[1,5-a]pyridin-2-yl]cyclopropanecarboxamide] |
| 0.0555 | CC(C)(C#N)COc1cnc(Cl)cc1-c1ccn2nc(NC(=O)C3CC3)cc2c1 [Example 666, N-[5-[2-chloro-5-(2-cyano-2-methyl-propoxy)-4-pyridyl]pyrazolo[1,5-a]pyridin-2-yl]cyclopropanecarboxamide] |
| 0.0391 | CNc1nc(C)cc(Nc2cc3cc(-c4cc(Cl)ncc4OCC(C)(C)C#N)ccn3n2)n1 [Example 675, 3-[[6-chloro-4-[2-[[6-methyl-2-(methylamino)pyrimidin-4-yl]amino]pyrazolo[1,5-a]pyridin-5-yl]-3-pyridyl]oxy]-2,2-dimethyl-propanenitrile] |

Continued, molecule first:

| Compound | IC50 [µM] |
| --- | --- |
| Cc1cc(Nc2cc3cc(-c4cc(NCC(F)F)ncc4OCC(C)(C)C#N)ccn3n2)nc(C)n1 [Example 667, 3-[[6-(2,2-difluoroethylamino)-4-[2-[(2,6-dimethylpyrimidin-4-yl)amino]pyrazolo[1,5-a]pyridin-5-yl]-3-pyridyl]oxy]-2,2-dimethyl-propanenitrile] | 0.0127 |
| COCc1cc(-c2ccn3nc(Nc4cc(C)nc(C)n4)cc3c2)c(OCC(C)(C)C#N)cn1 [Example 668, 3-[[4-[2-[(2,6-dimethylpyrimidin-4-yl)amino]pyrazolo[1,5-a]pyridin-5-yl]-6-(methoxymethyl)-3-pyridyl]oxy]-2,2-dimethyl-propanenitrile] | 0.319 |
| CC(C)(C#N)COc1cnc(OCC(F)(F)F)cc1-c1ccn2nc(NC(=O)C3CC3)cc2c1 [Example 669, N-[5-[5-(2-cyano-2-methyl-propoxy)-2-(2,2,2-trifluoroethoxy)-4-pyridyl]pyrazolo[1,5-a]pyridin-2-yl]cyclopropanecarboxamide] | 0.0526 |
| CC#Cc1cc(-c2ccn3nc(Nc4cc(C)nc(C)n4)cc3c2)c(OCC(C)(C)C#N)cn1 [Example 670, 3-[[4-[2-[(2,6-dimethylpyrimidin-4-yl)amino]pyrazolo[1,5-a]pyridin-5-yl]-6-prop-1-ynyl-3-pyridyl]oxy]-2,2-dimethyl-propanenitrile] | 0.0831 |
| CC#Cc1cc(-c2ccn3nc(Nc4cc(C)nc(C)n4)cc3c2)c(OC[C@@H]2OCC[C@H]2O)cn1 [Example 671, (2S,3R)-2-[[4-[2-[(2,6-dimethylpyrimidin-4-yl)amino]pyrazolo[1,5-a]pyridin-5-yl]-6-prop-1-ynyl-3-pyridyl]oxymethyl]tetrahydrofuran-3-ol] | 0.204 |
| Cc1cc(Nc2cc3cc(-c4cc(OCC#N)ncc4OCC(C)(C)C#N)ccn3n2)nc(C)n1 [Example 672, 3-[[6-(cyanomethoxy)-4-[2-[(2,6-dimethylpyrimidin-4-yl)amino]pyrazolo[1,5-a]pyridin-5-yl]-3-pyridyl]oxy]-2,2-dimethyl-propanenitrile] | 0.004 |
| Cc1cc(Nc2cc3cc(-c4cc(OCCF)ncc4OCC(C)(C)C#N)ccn3n2)nc(C)n1 [Example 673, 3-[[4-[2-[(2,6-dimethylpyrimidin-4-yl)amino]pyrazolo[1,5-a]pyridin-5-yl]-6-(2-fluoroethoxy)-3-pyridyl]oxy]-2,2-dimethyl-propanenitrile] | 0.00229 |
| CNc1nc(C)cc(Nc2cc3cc(-c4cc(O)ncc4OCC(C)(C)C#N)ccn3n2)n1 [Example 674, 3-[[6-hydroxy-4-[2-[[6-methyl-2-(methylamino)pyrimidin-4-yl]amino]pyrazolo[1,5-a]pyridin-5-yl]-3-pyridyl]oxy]-2,2-dimethyl-propanenitrile] | 0.063 |
